Measurements as given in patent US20180243298A1, “TRPV3 MODULATORS” (AbbVie Inc., priority 2015, published 2018).

How the values were obtained:
[1] = test system: TRPV3; details: TRPV3 activation, relatively weak and nonspecific across TRPs; cited from earlier work
[2] = test system: FITC-challenged mice; assay: Contact hypersensitivity (CHS) to FITC, ear swelling in mice; format: in vivo, mice (BALB/c); details: reduction in ear skin thickness vs vehicle, 24 hours after FITC challenge
Method: (ii) In vivo Data The following protocol was used to evaluate the efficacy of a compound against contact hypersensitivity:
Young adult female BALB/c mice (18±2 g body weight at 6-8 weeks old) Charles River Laboratories) were maintained under pathogen-free conditions and housed in an animal room maintained t at temperature of 21±1° C. and a humidity of 43±5%. Induction of contact hypersensitivity (CHS) and ear thickness measurements for all animals were carried out under light anesthesia (3-5% isoflurane/oxygen) for 1-2 minutes.
Contact hypersensitivity consists of the afferent or initiation sensitizing phase, and the efferent or elicitation phase. The latter phase occurs when epidermal cells encounter a particular antigen to which the epidermal cells have previously been exposed, and is characterized in rodents by localized swelling in the skin.
Fluorescein isothiocyanate (FITC) was purchased from Sigma-Aldrich and dissolved in 1:1 in acetone/dibutylphthalate prior to epicutaneous application. Mice were sensitized by painting epicutaneously 40 uL of 0.5% FITC on the abdomen ventral skin shaved one day prior to sensitization. Six days later, mice were challenged by painting epicutaneously 20 uL total volume of 0.5% FITC on the right ear (10 uL on either side). Control mice were treated with vehicle only. Ear swelling was measured 24 hours after challenge. Treatment groups were dosed orally at a dose volume of 10 mL/kg with compounds either BID (1 hour prior to FITC challenge, 8 hours after first dose and 2 hours prior to ear swelling measurement at 24 hours post FITC challenge) or QD (1 hour prior to FITC challenge and 2 hours prior to ear swelling measurement at 24 hours post FITC challenge). Inflammation was determined by the degree of ear swelling of the hapten exposed ear compared with the untreated ear with a Quick Mini thickness-gauge caliber (Mitutoyo, Japan). The change in ear thickness after allergen treatment can be used to calculate the percent suppression of contact hypersensitivity.
The level of compound-mediated suppression of ear skin thickness in FITC-challenged mice is indicated in Table 2 wherein “A” refers to a reduction in ear skin thickness of >50%, “B” refers to a reduction in ear skin thickness of 30-50% and “C” refers to a reduction in ear skin thickness of <30% relative to vehicle-treated animals.

[3] = target: T1, human TRPV3 (Homo sapiens, UniProt Q8NET8); assay: Calcium flux assay (FLIPR TETRA), recombinant HEK293 cells expressing TRPV3, 2-APB response; format: cell-based; details: 2-APB at its EC80
T1 construct: expressed in transfected cells; host or cells: HEK293
T1 sequence (Q8NET8 1-790): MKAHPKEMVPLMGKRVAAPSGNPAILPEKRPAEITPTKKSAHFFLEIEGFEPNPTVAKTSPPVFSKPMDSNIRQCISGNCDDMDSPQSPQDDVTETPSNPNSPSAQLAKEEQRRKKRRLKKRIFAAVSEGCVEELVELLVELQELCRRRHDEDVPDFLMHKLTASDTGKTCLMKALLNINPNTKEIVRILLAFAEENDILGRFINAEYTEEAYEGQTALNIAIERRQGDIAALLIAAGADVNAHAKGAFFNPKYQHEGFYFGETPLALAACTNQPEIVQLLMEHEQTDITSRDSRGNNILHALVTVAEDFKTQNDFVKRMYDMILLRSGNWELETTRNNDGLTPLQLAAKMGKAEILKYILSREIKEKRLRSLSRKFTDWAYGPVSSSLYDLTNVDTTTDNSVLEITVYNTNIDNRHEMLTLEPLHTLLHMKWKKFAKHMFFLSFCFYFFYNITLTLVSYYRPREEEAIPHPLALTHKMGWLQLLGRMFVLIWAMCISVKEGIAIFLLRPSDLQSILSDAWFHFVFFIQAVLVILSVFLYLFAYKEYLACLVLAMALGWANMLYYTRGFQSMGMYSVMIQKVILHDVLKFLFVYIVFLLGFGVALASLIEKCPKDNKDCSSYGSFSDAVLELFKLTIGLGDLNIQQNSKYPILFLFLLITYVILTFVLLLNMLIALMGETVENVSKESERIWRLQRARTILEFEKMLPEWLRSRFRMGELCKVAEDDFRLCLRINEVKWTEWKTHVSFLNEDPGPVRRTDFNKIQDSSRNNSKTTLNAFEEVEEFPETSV
Method in brief: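 Response is the peak fluorescence increase over baseline, as a percentage of the compound-free response to 2-APB at EC80. Calcium flux recorded on FLIPR TETRA in stable human or mouse TRPV3 HEK293 cells after 90–120 min Calcium-4 dye loading.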

[4] = Mus musculus, 30 mg/kg bid po, read-out: FITC % effect

| Compound | EC50 [1] [nM] | inhibition in vivo at 10 mg/kg ([2]; Mus musculus, 10 mg/kg qd po, read-out: FITC % effect) [%] | IC50 [3] [nM] | inhibition in vivo at 30 mg/kg [2, 4] [%] | FITC % effect ([2]; 30 mg/kg bid po) |
| --- | --- | --- | --- | --- | --- |
| c1ccc(B(OB(c2ccccc2)c2ccccc2)c2ccccc2)cc1 [DPBA, diphenylboronic anhydride] | ~40000 |  |  |  |  |
| COc1ncnc(OC)c1C(=O)Nc1nc(C(F)(F)F)c(CN2CC[C@@H](F)C2)s1 [Example 58, N-[5-{[(3R)-3-fluoropyrrolidin-1-yl]methyl}-4-(trifluoromethyl)-1,3-thiazol-2-yl]-4,6-dimethoxypyrimidine-5-carboxamide] |  | 30 to 50 | 50 to 100 |  |  |
| COc1ncnc(OC)c1C(=O)Nc1nc(C(F)(F)F)c(-c2cncc(C(F)(F)F)c2)s1 [Example 196, 4,6-dimethoxy-N-{4-(trifluoromethyl)-5-[5-(trifluoromethyl)pyridin-3-yl]-1,3-thiazol-2-yl}pyrimidine-5-carboxamide] |  |  | < 50 | < 30 |  |
| N-[5-(4-cyanophenyl)-4-(trifluoromethyl)-1,3-thiazol-2-yl]-4,6-dimethoxypyrimidine-5-carboxamide [Example 41] |  |  | < 50 |  | C (a reduction in ear skin thickness of <30% relative to vehicle-treated animals) |
| COc1ncnc(OC)c1C(=O)Nc1nc(C(F)(F)F)c(-c2cnc(C(F)(F)F)nc2)s1 [Example 202, 4,6-dimethoxy-N-{4-(trifluoromethyl)-5-[2-(trifluoromethyl)pyrimidin-5-yl]-1,3-thiazol-2-yl}pyrimidine-5-carboxamide] |  |  | < 50 | < 30 |  |
| NCCOB(c1ccccc1)c1ccccc1 [Example 2-APB, 2-aminoethoxydiphenylborate] | ~40000 |  |  |  |  |
| COc1ncnc(OC)c1C(=O)Nc1nc(C(F)(F)F)c(-c2cccc(C#N)c2)s1 [Example 40, N-[5-(3-cyanophenyl)-4-(trifluoromethyl)-1,3-thiazol-2-yl]-4,6-dimethoxypyrimidine-5-carboxamide] |  |  | < 50 | < 30 |  |
| COc1ncnc(OC)c1C(=O)Nc1nc(C(F)(F)F)c(CN2CCC(OC)CC2)s1 [Example 48, 4,6-dimethoxy-N-{5-[(4-methoxypiperidin-1-yl)methyl]-4-(trifluoromethyl)-1,3-thiazol-2-yl}pyrimidine-5-carboxamide] |  |  | 100 to 500 | < 30 |  |
